Measurements reported in patent US20240124520A1, “N-ACYLATED HISTIDINE DIPEPTIDES AS ANTICANCER AGENTS” (THE BOARD OF TRUSTEES OF THE LELAND STANFORD JUNIOR …, priority 2019, published 2024).
Non-standard residues stand in square brackets, D forms with d. Residues, ends and D or L forms follow the SMILES beside them. *: point of attachment. Palmitoyl = CCCCCCCCCCCCCCCC(=O)*

Tested on: MDA-MB-231 triple-negative human breast cancer cells
Assay: Cell Titer Blue in vitro cell viability assay, MDA-MB-231
Format: cell-based
Conditions: MDA-MB-231 (DMEM); for IC50: MDA-MB-231, 72 h, 3 days at 37° C.
Procedure: FIG. 1: Dose Response curve for MBC017 with MDA-MB-231 cells. Compound MBC017 was incubated with MDA-MB-231 triple-negative human breast cancer cells at the indicated concentrations for 3 days at 37° C. prior to Cell Titer Blue fluorescence-based cell viability assay. Normalized cell viability data, expressed as a percentage, are averaged from three biological replicates and standard error represented by error bars for each averaged data point (empty squares). The compound concentrations are represented on log scale on the x-axis in μM units. Data were analyzed using free software called DrFit, as described in Nature Scientific Reports, Article number: 14701, (2015). […] The data were not sufficient to calculate an accurate IC50 value.
A commercially available in vitro cell viability reagent (Cell Titer Blue) was employed to determine the anti-cancer effectiveness of several compounds (1-5) against multiple cancer and healthy tissue-derived cell lines. Cell lines are summarized in Table 2, as follows: All cell lines and information on each cell lines origins and characteristics were procured from ATCC (www.atcc.org). Common names and ATCC product IDs are shown in the first (leftmost) column. From the left, the second and third columns describe the organism and tissue from which each cell line was isolated. The fourth and fifth columns indicate the cell type and disease status (e.g. normal versus carcinoma) of each cell line. The sixth column provides a summary of what compounds were tested against each cell line using an in vitro cell viability assay. Peptide name IDs are shown in parenthesis for each compound, numbered 1 through 5.
The Cell Titer Blue reagent (available from Promega, Inc.) is a buffered solution containing resazurin, a compound that is converted to resorufin, a detectable fluorescent product, by metabolically active cells. The fluorescence intensity of resorufin product therefore serves as a proportional measure of the number of viable cells, permitting changes in cell viability within cancer or other cell lines to be monitored in response to the addition of cytotoxic or cytostatic agents. Various human breast tissue-derived cell lines are widely employed to study the effects of potential therapeutics against breast cancer in vitro. Human breast cancer cell lines may be subdivided into groups based upon hormone receptor status, i.e. estrogen, progesterone and human epidermal growth factor positive or negative. A healthy human breast tissue-derived cell line, hTERT-HME1 may be used to determine the effect of therapeutic agents on healthy human breast tissue in vitro. Additionally, a highly metastatic and aggressive murine (mouse) breast cancer cell line, 4T1, has been extensively used to monitor breast cancer metastasis from the mammary fat pads of mice to the lungs in order to systematically survey the anti-metastatic effectiveness of anti-cancer therapeutics in an in vivo animal model. Metastases to the lungs may be conveniently quantified by a well-established clonogenic assay. Other human tissue-derived model cell lines, representative of various cancers, other than breast cancer, may be utilized to assess the potential of anti-cancer compounds in vitro. These include, K-562 (chronic myelogenous leukemia), HEPG2 (hepatocellular carcinoma), OVCAR-3 (ovarian adenocarcinoma), SK—N—SH (neuroblastoma) and A549 (lung carcinoma). Several compounds were assayed in vitro using the Cell Titer Blue viability assay against an array of cancer cell lines of both human and murine origin plus one healthy human breast cell line (Table 1, FIGS. 1-16). A mouse 4T1 metastasis study was performed to determine the anti-metastatic potential of one compound, MBC0179 (FIG. 17).
Dimethyl sulfoxide (DMSO), Cremophor EL, methylene blue, 100× antibiotic/antimycotic solution, collagenase (Type IV), DNAse I and 6-thioguanine were available from Millipore-Sigma. […]

IC50	Compound	cytotoxicity at 125 µM (72 h, 125 μM, relative to vehicle, 3 days of incubation, read-out: reduction in viability)
–	CCCCCCCCCCCCCCCC(=O)N[C@@H](Cc1c[nH]cn1)C(=O)N[C@H](C(=O)O)C(C)C [Compound 1, N-[N-(1-oxohexadecyl)-L-histidyl]-L-valine] (Palmitoyl-His-Val-OH)	~40%
6730 µM	CCCCCCCCCCCCCCCC(=O)N[C@@H](Cc1c[nH]cn1)C(=O)N[C@H](C(=O)O)[C@@H](C)CC [Compound 2, N-[N-(1-oxohexadecyl)-L-histidyl]-L-isoleucine] (Palmitoyl-His-Ile-OH)	–
13.1 µM	CCCCCCCCCCCCCCCC(=O)N[C@@H](Cc1c[nH]cn1)C(=O)N[C@H](C(=O)OCC)C(C)C [Compound 3, N-[N-(1-oxohexadecyl)-L-histidyl]-L-valine ethyl ester] (Palmitoyl-His-Val-OEt)	–
62.1 µM	CCCCCCCCCCCCCCCC(=O)N[C@H](Cc1c[nH]cn1)C(=O)N[C@@H](C(=O)O)C(C)C [Compound 4, N-[N-(1-oxohexadecyl)-D-histidyl]-D-valine] (Palmitoyl-[dH]-[dV]-OH)	–
